In US20250051323A1 (RICHTER GEDEON NYRT., priority 2021, published 2025):
Where a name gives a salt, the structure may show the parent alone.

Molecular target: human recombinant GABAA α5β3γ2 receptor (Homo sapiens (Human), UniProt P18507+P31644)
Assay: Binding assay, [3H]Ro151788 displacement on HEK cell membranes
Conditions: [3H]Ro151788 0.5 nM, 60 minutes at 4° C., Cheng-Prusoff; read-out: hGABAA α5 Ki
Experimental: The GABAA α5β3γ2 protein used for the receptor binding assay was derived from membranes produced from HEK cells (Millipore CYL3073) expressing the human recombinant GABAA α5β3γ2 receptor. Cells were stored and cultured in-house according to the instructions provided by the vendor (Millipore). Cell pellet was homogenized in 10 times modified Krebs Henseleit buffer (membrane preparation buffer): 20 mM Tris, 120 mM NaCl, 100 mM KCl, 25 mM CaCl2 and 25 mM MgCl2 pH=7.4 at 4° C. using Ultra Turrax (Janke&Kunkel) maximal speed for 15 seconds. The homogenate was centrifuged at 40,000 g for 30 minutes at 4° C. Supernatant was discarded and the resulting pellet was washed in membrane preparation buffer. Pellet was resuspended in membrane preparation buffer and aliquots of 1.4 mL ampules were stored at −70° C. until use.
Receptor binding assays were performed in 96-well format in deep-well plates. For each 96-well plate one ampule of membrane homogenate was thawed and diluted in binding buffer (50 mM Tris pH=7.4, 100 mM KCl) and 200 μL was dispensed into each well. Radioligand [^3H]Ro151788 (Perkin Elmer: NET757250UC) was prepared in binding buffer and added to each well in 50 μL volume to give final concentration of 0.5 nM. Test compounds in suitable concentration(s) were added in additional 50 μL. The final assay volume was 300 μL. Incubation was carried out for 60 minutes at 4° C. For non-specific binding 10 μM unlabeled diazepam was used. […] The plate was dried at 40° C. for an hour and 40 μL Microscint (Perkin Elmer) scintillation cocktail was added to each well. The plate was read in Microbeta (Perkin Elmer).
The specific radioligand binding (SB) was defined as the difference between total binding (Tot) and the non-specific binding (NSB). Results are expressed as a percent inhibition of specific binding obtained in the presence of compound of interest.
For IC50 and Ki determination a minimum of six drug concentrations in triplicate were used. […] Ki values (i.e., inhibition constants) were calculated using the Cheng-Prusoff equation Ki=IC5O/[1+(L/KD)], where [L] is the radioligand concentration and KD the affinity of the labelled ligand for receptor. KD was determined from the Saturation analyses.

Chain of human recombinant GABAA α5β3γ2 receptor (P31644 32-462): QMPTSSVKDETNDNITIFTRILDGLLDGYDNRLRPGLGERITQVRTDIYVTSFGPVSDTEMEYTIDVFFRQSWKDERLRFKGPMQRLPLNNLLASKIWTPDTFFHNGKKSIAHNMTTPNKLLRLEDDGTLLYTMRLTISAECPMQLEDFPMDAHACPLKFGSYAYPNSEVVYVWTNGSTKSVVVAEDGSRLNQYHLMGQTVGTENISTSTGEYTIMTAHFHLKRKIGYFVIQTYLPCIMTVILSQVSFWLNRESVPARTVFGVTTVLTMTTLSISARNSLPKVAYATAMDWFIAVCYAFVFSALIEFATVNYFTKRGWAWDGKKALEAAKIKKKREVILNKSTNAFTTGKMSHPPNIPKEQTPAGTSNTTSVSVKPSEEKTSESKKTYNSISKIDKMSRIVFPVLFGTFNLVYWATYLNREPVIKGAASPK
Chain of human recombinant GABAA α5β3γ2 receptor (P28472 26-473 partner): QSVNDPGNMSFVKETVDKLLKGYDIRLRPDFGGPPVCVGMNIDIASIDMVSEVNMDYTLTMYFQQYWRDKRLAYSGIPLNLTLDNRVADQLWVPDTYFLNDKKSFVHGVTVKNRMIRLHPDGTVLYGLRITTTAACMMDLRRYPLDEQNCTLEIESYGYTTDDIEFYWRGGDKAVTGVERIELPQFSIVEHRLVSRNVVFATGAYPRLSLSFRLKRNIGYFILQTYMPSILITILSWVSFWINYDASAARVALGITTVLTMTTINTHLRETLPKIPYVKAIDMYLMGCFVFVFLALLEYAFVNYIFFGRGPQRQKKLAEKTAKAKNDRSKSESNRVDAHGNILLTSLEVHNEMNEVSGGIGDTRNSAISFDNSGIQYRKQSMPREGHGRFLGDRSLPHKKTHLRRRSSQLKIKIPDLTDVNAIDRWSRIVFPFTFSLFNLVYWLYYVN
Chain of human recombinant GABAA α5β3γ2 receptor (P18507 40-475): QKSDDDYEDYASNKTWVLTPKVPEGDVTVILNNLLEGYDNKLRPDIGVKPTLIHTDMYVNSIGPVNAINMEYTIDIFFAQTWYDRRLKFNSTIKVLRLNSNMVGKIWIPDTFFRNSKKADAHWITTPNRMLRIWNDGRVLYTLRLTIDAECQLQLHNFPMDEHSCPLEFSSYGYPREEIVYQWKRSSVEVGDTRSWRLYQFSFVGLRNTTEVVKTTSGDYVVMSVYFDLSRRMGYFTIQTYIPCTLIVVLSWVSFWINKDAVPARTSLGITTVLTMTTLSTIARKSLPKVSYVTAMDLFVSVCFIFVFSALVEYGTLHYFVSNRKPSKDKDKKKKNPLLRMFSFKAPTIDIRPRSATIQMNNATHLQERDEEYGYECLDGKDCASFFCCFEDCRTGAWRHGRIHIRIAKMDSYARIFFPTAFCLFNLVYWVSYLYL

| Ki | Structure (SMILES) |
| --- | --- |
| 0.0176 µM | Cc1onc(-c2ccc(C(F)(F)F)nc2)c1COc1cc2c(nn1)CN(C)CC2 [Example 17] |
| 0.0282 µM | Cc1onc(-c2ccc(C(F)(F)F)nc2)c1COc1cc2c(cn1)CN(C(C)CS(C)(=O)=O)CC2 (stereo not drawn) [Example 12, 2-(1-methanesulfonylpropan-2-yl)-6-({5-methyl-3-[6-(trifluoromethyl)pyridin-3-yl]-1,2-oxazol-4-yl}methoxy)-1,2,3,4-tetrahydro-2,7-naphthyridine] |
| 0.0073 µM | Cc1nnn(-c2ccc(C(F)F)nc2)c1COc1cc2c(cn1)CNCC2 [Example 23, 6-({1-[6-(difluoromethyl)pyridin-3-yl]-4-methyl-1H-1,2,3-triazol-5-yl}methoxy)-1,2,3,4-tetrahydro-2,7-naphthyridine] |
| 0.0938 µM | Cc1nnn(-c2ccc(C(F)(F)F)nc2)c1COc1cc2c(cn1)CN(C(C)C)CC2 [Example 26, 6-({4-methyl-1-[6-(trifluoromethyl)pyridin-3-yl]-1H-1,2,3-triazol-5-yl}methoxy)-2-(propan-2-yl)-1,2,3,4-tetrahydro-2,7-naphthyridine] |
| 0.0074 µM | Cc1ccc(-c2noc(C)c2COc2cc3c(cn2)CN(CC2CCC2)CC3)cn1 [Example 5, 2-(cyclobutylmethyl)-6-{[5-methyl-3-(6-methylpyridin-3-yl)-1,2-oxazol-4-yl]methoxy}-1,2,3,4-tetrahydro-2,7-naphthyridine] |
| 0.0888 µM | Cc1nnn(-c2ccc(C(F)(F)F)nc2)c1COc1cc2c(cn1)CN(C1CCOCC1)CC2 [Example 35, 6-({4-methyl-1-[6-(trifluoromethyl)pyridin-3-yl]-1H-1,2,3-triazol-5-yl}methoxy)-2-(oxan-4-yl)-1,2,3,4-tetrahydro-2,7-naphthyridine] |
| 0.0084 µM | Cc1ccc(-c2noc(C)c2COc2cc3c(cn2)CN(C2CCCC2)CC3)cn1 [Example 6, 2-cyclopentyl-6-{[5-methyl-3-(6-methylpyridin-3-yl)-1,2-oxazol-4-yl]methoxy}-1,2,3,4-tetrahydro-2,7-naphthyridine] |
| 0.0632 µM | Cc1nnn(-c2ccc(C(F)(F)F)nc2)c1COc1cc2c(cn1)CN(C)CC2 [Example 27, 2-methyl-6-({4-methyl-1-[6-(trifluoromethyl)pyridin-3-yl]-1H-1,2,3-triazol-5-yl}methoxy)-1,2,3,4-tetrahydro-2,7-naphthyridine] |
| 0.0042 µM | Cc1ccc(-c2noc(C)c2COc2cc3c(cn2)CN(C)CC3)cn1 [Example 3, 2-methyl-6-{[5-methyl-3-(6-methylpyridin-3-yl)-1,2-oxazol-4-yl]methoxy}-1,2,3,4-tetrahydro-2,7-naphthyridine] |
| 0.0059 µM | Cc1nnn(-c2ccc(C(F)F)nc2)c1COc1cc2c(cn1)CN(C(C)C)CC2 [Example 28, 6-({1-[6-(difluoromethyl)pyridin-3-yl]-4-methyl-1H-1,2,3-triazol-5-yl}methoxy)-2-(propan-2-yl)-1,2,3,4-tetrahydro-2,7-naphthyridine] |

| Structure (SMILES) | Ki |
| --- | --- |
| Cc1ccc(-n2nnc(C)c2COc2cc3c(cn2)CN([C@@H]2CCOC2)CC3)cn1 (single isomer, unassigned) [Example 38, 6-{[4-methyl-1-(6-methylpyridin-3-yl)-1H-1,2,3-triazol-5-yl]methoxy}-2-[(3S)-oxolan-3-yl]-1,2,3,4-tetrahydro-2,7-naphthyridine or enantiomer, tartarate salt] | 0.0209 µM |
| Cc1ccc(-n2nnc(C)c2COc2cc3c(cn2)CN([C@H]2CCOC2)CC3)cn1 (single isomer, unassigned) [Example 39, 6-{[4-methyl-1-(6-methylpyridin-3-yl)-1H-1,2,3-triazol-5-yl]methoxy}-2-[(3R)-oxolan-3-yl]-1,2,3,4-tetrahydro-2,7-naphthyridine or enantiomer, tartarate salt] | 0.0214 µM |
